The text below walks through data of patent publication US8835429B2, “Pyrimidine compounds, their use as mTOR kinase and Pl3 kinase inhibitors, and their syntheses” (Wyeth LLC, priority 2009, dated 2014).

The target of one experiment is PI3K-alpha (Homo sapiens, UniProt P42336). Put plainly: PI3K-alpha fluorescence polarization assay. The class given is biochemical. The following applies: 20 μM PIP2, 25 μM ATP; read-out: PI3Kα IC50. In a few lines: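 PIP2 (diC8) and ATP substrate with PI3K in 20 mM HEPES pH 7.5, 2 mM MgCl2, 0.05% CHAPS, 0.01% βME; 1% DMSO final; 30–60 min reaction. Stopped with EDTA plus GST-GRP (70 nM) and TAMRA probe (10 nM); FP (mP) read after 30–90 min, with no-enzyme controls.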
For orientation: Fluorescence polarisation rises when a labelled molecule tumbles more slowly, as on binding a larger partner.

A further experiment deals with LNCap. Put plainly: In vitro cell growth assay (MTS), LNCap. The class given is cell-based. Conditions: LNCaP, 72 h, human prostate line, three days after drug treatment.
The next experiment has as its system MDA468. Put plainly: In vitro cell growth assay (MTS), MDA468. The class given is cell-based. Conditions: 72 h, human breast line MDA468, three days after drug treatment, read-out: MDA IC50.
For a further experiment, the target named is PI3K-gamma (Homo sapiens, UniProt P48736). Put plainly: PI3K-gamma fluorescence polarization assay. The following applies: 20 μM PIP2, 25 μM ATP; read-out: PI3Kγ IC50. The class given is biochemical. The method, then:
The reaction buffer was 20 mM HEPES, pH 7.5, 2 mM MgCl2, 0.05% CHAPS; and 0.01% βME (added fresh). The stop/detection buffer was 100 mM HEPES, pH 7.5, 4 mM EDTA, 0.05% CHAPS; ATP 20 mM in water; PIP2 (diC8, Echelon, Salt Lake City Utah cat #P-4508) 1 mM in water (MW=856.5). The GST-GRP was 1.75 mg/mL or 1.4 mg/mL in 10% glycerol. The red detector (TAMRA) was 2.5 μM. Nunc 384-well black polypropylene fluorescent plates were used for PI3K assays.
The assay is run by placing 5 μL of diluted enzyme per well, then 5 μL of diluted compound (or 9.5 μL enzyme then 0.5 μL compound in DMSO) is added and mixed. Then, 10 μL substrate is added to start the reaction. The samples are incubated 30-60 minutes, then the reaction is stopped by adding 20 μL stop/detector mix. PI3K is diluted with reaction buffer (e.g., 5 μL or 7.5 μL PI3K into 620 μL reaction buffer), and 5 μL of diluted enzyme is used per well. A 5 μL portion of reaction buffer or of drug diluted in buffer (e.g., 4 μL/100 so final DMSO is 1% in reaction) is added to each. Pipetting up and down mixes the samples. Alternatively, the enzyme can be diluted to 1215 μL. In this case 9.8 μL is added per well and 0.2 μL compound is added in DMSO.
To prepare 1 mL of substrate solution, 955 μL reaction buffer, 40 μL PIP2, and 2.5 μL ATP are mixed. 10 μL of substrate is added to each well to start the reaction. […] The stop/detector mix is prepared by mixing 4 μL red detector and 1.6 μL or 2.0 μL GST-GRP with 1 mL stop buffer, which results in 10 nM probe and 70 nM GST-GRP. 20 μL of the stop/detector mix is added to each well to stop the reaction. The plates are read after 30-90 minutes keeping the red probe solutions dark. For the zero time point, stop/detector mix is added to the enzyme just before adding substrate. For an extra control, stop/detector mix is added to buffer (no enzyme) and substrate or to just buffer (no substrate). […] The recommended reaction has 0.06 μL per 20 μL (0.015 μg/20 μL) or 0.01125 μg/15 μL or 0.75 μg/mL.
Plates are read on machines with filters for TAMRA. The units are mP with no enzyme controls reading app 190-220 mP units. Fully active enzyme reduces fluorescence polarization down to 70-100 mP after 30 minutes. An active compound raises the mP values halfway to control or to 120-150 mP units.

Another experiment deals with mTOR (Homo sapiens, UniProt P42345). Put plainly: mTOR enzyme assay (DELFIA, purified FLAG-TOR, His6-S6K substrate). The class given is biochemical. Also on record: FLAG. The following applies: 100 μM ATP, 2 hours.
mTOR, sequence (P42345 1360-2549 limits assumed): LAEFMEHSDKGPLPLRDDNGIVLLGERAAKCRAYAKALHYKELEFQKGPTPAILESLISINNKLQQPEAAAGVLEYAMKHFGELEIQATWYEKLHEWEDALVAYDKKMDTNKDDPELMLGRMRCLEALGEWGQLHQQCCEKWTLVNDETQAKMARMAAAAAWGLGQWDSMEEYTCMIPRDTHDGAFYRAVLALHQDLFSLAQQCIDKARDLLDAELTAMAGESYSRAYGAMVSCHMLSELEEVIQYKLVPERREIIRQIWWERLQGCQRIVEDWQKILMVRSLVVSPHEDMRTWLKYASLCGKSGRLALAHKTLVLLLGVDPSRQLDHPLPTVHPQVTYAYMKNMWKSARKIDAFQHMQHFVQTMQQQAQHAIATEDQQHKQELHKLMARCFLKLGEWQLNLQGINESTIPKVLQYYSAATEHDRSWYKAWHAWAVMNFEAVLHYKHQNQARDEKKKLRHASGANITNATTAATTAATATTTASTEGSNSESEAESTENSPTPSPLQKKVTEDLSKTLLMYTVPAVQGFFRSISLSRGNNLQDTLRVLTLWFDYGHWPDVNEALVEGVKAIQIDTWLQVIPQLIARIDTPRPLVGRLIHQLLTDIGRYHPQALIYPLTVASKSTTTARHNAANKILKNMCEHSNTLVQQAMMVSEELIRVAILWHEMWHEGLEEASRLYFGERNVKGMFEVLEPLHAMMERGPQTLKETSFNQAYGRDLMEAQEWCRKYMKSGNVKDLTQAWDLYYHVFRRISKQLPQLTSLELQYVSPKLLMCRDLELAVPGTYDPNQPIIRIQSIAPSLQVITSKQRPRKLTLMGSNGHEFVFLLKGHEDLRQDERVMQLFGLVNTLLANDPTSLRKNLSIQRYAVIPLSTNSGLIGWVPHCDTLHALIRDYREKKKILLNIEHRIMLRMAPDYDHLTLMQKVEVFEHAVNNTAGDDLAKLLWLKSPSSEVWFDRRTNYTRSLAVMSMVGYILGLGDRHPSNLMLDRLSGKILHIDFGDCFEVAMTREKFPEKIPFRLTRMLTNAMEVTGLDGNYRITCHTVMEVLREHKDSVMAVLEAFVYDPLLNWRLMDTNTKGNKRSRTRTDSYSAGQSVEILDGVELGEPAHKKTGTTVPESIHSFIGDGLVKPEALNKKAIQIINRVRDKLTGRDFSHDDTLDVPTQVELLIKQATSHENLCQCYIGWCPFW

PI3K-gamma, sequence (P48736 whole entry, species assumed): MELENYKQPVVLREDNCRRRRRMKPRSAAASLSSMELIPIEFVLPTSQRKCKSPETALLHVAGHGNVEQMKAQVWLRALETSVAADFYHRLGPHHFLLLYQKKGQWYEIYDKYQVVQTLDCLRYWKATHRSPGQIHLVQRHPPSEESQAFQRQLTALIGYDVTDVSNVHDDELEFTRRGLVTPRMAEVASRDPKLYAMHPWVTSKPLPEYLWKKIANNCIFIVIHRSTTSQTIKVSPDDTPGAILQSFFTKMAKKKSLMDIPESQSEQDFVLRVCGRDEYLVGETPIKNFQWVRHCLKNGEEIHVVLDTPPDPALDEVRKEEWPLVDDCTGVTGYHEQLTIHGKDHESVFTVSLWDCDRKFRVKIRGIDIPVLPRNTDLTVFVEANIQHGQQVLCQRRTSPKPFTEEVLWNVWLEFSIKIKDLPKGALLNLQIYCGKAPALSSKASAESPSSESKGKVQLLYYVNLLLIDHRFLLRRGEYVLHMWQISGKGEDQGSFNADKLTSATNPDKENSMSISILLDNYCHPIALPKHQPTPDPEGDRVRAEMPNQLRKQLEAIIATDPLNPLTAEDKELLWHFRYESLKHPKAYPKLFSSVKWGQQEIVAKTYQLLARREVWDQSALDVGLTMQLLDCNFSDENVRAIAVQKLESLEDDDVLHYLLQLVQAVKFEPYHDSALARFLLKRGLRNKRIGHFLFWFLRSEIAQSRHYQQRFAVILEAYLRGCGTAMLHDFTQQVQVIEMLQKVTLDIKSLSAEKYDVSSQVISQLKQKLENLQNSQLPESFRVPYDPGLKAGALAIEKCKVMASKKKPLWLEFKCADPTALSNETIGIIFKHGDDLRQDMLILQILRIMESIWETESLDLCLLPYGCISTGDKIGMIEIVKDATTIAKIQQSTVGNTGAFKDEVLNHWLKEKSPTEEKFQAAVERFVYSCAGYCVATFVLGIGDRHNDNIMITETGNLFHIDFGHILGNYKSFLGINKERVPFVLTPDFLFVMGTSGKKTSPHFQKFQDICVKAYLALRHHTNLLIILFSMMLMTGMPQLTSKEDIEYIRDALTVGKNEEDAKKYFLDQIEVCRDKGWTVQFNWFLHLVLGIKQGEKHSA
PI3K-alpha, sequence (P42336 whole entry, species assumed): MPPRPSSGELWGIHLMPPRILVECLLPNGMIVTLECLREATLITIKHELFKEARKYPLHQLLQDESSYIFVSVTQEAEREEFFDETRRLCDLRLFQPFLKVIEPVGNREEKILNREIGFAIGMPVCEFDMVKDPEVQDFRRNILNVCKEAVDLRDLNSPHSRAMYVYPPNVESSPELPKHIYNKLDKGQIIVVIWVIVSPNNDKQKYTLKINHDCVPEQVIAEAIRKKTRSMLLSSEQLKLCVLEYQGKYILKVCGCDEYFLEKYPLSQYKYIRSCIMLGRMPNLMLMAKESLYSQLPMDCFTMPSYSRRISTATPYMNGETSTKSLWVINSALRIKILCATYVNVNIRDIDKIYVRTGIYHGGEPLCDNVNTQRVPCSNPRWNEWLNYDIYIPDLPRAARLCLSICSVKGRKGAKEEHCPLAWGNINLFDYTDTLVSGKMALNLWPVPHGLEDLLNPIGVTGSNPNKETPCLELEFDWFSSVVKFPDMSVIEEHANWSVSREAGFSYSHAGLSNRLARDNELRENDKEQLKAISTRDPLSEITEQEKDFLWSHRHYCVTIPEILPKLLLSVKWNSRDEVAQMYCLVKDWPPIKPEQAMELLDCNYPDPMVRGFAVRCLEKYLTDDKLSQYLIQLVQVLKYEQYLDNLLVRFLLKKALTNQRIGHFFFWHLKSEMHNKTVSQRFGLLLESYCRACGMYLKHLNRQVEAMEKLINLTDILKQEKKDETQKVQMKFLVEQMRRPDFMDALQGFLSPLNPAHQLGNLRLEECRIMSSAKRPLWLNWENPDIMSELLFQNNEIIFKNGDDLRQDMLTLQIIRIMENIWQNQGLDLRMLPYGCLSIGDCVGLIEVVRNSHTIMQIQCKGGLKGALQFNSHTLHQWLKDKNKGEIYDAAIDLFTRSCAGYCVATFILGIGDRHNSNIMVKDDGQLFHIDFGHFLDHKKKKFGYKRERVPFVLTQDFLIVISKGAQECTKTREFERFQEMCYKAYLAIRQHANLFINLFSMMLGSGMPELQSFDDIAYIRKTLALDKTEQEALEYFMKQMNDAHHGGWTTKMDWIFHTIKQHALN
PI3K-alpha, sequence (P27986 whole entry partner, species assumed): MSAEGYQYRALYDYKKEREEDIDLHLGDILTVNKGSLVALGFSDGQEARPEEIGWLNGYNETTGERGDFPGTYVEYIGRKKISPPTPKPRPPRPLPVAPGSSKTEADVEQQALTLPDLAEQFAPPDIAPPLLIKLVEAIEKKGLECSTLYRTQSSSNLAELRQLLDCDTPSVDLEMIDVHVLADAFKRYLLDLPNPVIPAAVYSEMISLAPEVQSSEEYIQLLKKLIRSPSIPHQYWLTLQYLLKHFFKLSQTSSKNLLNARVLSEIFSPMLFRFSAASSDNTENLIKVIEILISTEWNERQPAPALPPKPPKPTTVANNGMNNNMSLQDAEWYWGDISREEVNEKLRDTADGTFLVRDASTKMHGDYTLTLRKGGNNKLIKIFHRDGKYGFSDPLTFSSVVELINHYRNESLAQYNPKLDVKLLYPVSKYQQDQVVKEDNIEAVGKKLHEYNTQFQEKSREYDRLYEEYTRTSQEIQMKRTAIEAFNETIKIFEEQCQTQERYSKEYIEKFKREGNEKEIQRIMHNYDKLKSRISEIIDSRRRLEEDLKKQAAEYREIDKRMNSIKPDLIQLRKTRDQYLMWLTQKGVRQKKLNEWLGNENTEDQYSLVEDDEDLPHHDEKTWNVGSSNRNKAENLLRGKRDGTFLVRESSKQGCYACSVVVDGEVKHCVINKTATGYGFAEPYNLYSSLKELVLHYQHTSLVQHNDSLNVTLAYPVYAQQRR

Consider `CN1CCN(c2ccc(NC(=O)Nc3ccc(-c4nc(N5C6CCC5COC6)cc(N5C[C@H]6C[C@@H]5CO6)n4)cc3)cc2)CC1` [1-[4-(4-methylpiperazin-1-yl)phenyl]-3-(4-{4-[(1R,4R)-2-oxa-5-azabicyclo[2.2.1]hept-5-yl]-6-(3-oxa-8-azabicyclo[3.2.1]oct-8-yl)pyrimidin-2-yl}phenyl)urea], for which the IC50 on PI3K-alpha was determined as 2090 nM; in the experiment with LNCap, 40 nM; in the experiment with MDA468, 48 nM; at PI3K-gamma, 8710 nM; against mTOR, 7.55 nM.

Consider `CN(C)CCOc1ccc(NC(=O)Nc2ccc(-c3nc(N4C5CCC4COC5)cc(N4C[C@H]5C[C@@H]4CO5)n3)cc2)cc1` [1-{4-[2-(dimethylamino)ethoxy]phenyl}-3-(4-{4-[(1R,4R)-2-oxa-5-azabicyclo[2.2.1]hept-5-yl]-6-(3-oxa-8-azabicyclo[3.2.1]oct-8-yl)pyrimidin-2-yl}phenyl)urea], for which the IC50 at PI3K-alpha is 2740 nM; in the experiment on LNCap, 120 nM; in the experiment on MDA468, 130 nM; on PI3K-gamma it was 9470 nM; on mTOR, 12 nM.

For `O=C(Nc1ccncc1)Nc1ccc(-c2nc(N3C4CCC3COC4)cc(N3C[C@H]4C[C@@H]3CO4)n2)cc1` [1-(4-{4-[(1R,4R)-2-oxa-5-azabicyclo[2.2.1]hept-5-yl]-6-(3-oxa-8-azabicyclo[3.2.1]oct-8-yl)pyrimidin-2-yl}phenyl)-3-pyridin-4-ylurea], the IC50 was found to be 1890 nM at PI3K-alpha; 90 nM in the experiment on LNCap; 110 nM with MDA468; 7430 nM on PI3K-gamma; 2.25 nM against mTOR.

With `CN1CCN(c2ccc(NC(=O)Nc3ccc(-c4nc(NC5CCOCC5)cc(N5C6CCC5COC6)n4)cc3)cc2)CC1` [1-[4-(4-methylpiperazin-1-yl)phenyl]-3-{4-[4-(3-oxa-8-azabicyclo[3.2.1]oct-8-yl)-6-(tetrahydro-2H-pyran-4-ylamino)pyrimidin-2-yl]phenyl}urea], the IC50 on PI3K-alpha stood at 2260 nM; in the experiment on LNCap, 7 nM; with MDA468, 10 nM; at PI3K-gamma, 9230 nM; on mTOR, 7.5 nM.

For the compound `CN(C)CCOc1ccc(NC(=O)Nc2ccc(-c3nc(C4CCOCC4)cc(N4C5CCC4COC5)n3)cc2)cc1` [1-{4-[2-(dimethylamino)ethoxy]phenyl}-3-{4-[4-(3-oxa-8-azabicyclo[3.2.1]oct-8-yl)-6-(tetrahydro-2H-pyran-4-yl)pyrimidin-2-yl]phenyl}urea], the IC50 at PI3K-alpha came out at 1460 nM; with LNCap, 4 nM; in the experiment with MDA468, 11 nM; on PI3K-gamma, 7300 nM; against mTOR it was 1.15 nM.

Turning to `C[C@@H]1COCCN1c1cc(N2C3CCC2COC3)nc(-c2ccc(NC(=O)Nc3ccncc3)cc2)n1` [1-(4-{4-[(3R)-3-methylmorpholin-4-yl]-6-(3-oxa-8-azabicyclo[3.2.1]oct-8-yl)pyrimidin-2-yl}phenyl)-3-pyridin-4-ylurea], the IC50 at PI3K-alpha amounted to 314 nM; in the experiment on LNCap it was 1 nM; with MDA468 it was 5 nM; on PI3K-gamma it was 778 nM; against mTOR, 0.645 nM.

As to `CC(C)Nc1cc(N2C3CCC2COC3)nc(-c2ccc(NC(=O)Nc3ccc(CN(C)C)cc3)cc2)n1` [1-{4-[(dimethylamino)methyl]phenyl}-3-(4-{4-[(1-methylethyl)amino]-6-(3-oxa-8-azabicyclo[3.2.1]oct-8-yl)pyrimidin-2-yl}phenyl)urea], the IC50 on PI3K-alpha worked out at 1190 nM; in the experiment on LNCap, 120 nM; in the experiment with MDA468, 120 nM; at PI3K-gamma, 3880 nM; against mTOR, 2.65 nM.

For `C[C@@H]1CN(c2cc(N3C4CCC3COC4)nc(-c3ccc(NC(=O)Nc4ccc(N5CCN(C)CC5)cc4)cc3)n2)C[C@H](C)O1` [1-(4-{4-[(2R,6S)-2,6-dimethylmorpholin-4-yl]-6-(3-oxa-8-azabicyclo[3.2.1]oct-8-yl)pyrimidin-2-yl}phenyl)-3-[4-(4-methylpiperazin-1-yl)phenyl]urea], the IC50 on PI3K-alpha stood at 1550 nM; with LNCap, 30 nM; in the experiment on MDA468, 130 nM; on PI3K-gamma, 6440 nM; against mTOR it was 4.4 nM.

Take `CS(=O)(=O)CCNc1cc(N2C3CCC2COC3)nc(-c2ccc(NC(=O)Nc3ccncc3)cc2)n1` [1-{4-[4-{[2-(methylsulfonyl)ethyl]amino}-6-(3-oxa-8-azabicyclo[3.2.1]oct-8-yl)pyrimidin-2-yl]phenyl}-3-pyridin-4-ylurea]: the IC50 stood at 1300 nM at PI3K-alpha; 1000 nM in the experiment with LNCap; 400 nM in the experiment with MDA468; 10800 nM at PI3K-gamma; 4.05 nM against mTOR.

Take `O=C(Nc1ccc(-c2nc(N3C4CCC3COC4)cc(N3C4CCC3COC4)n2)cc1)Nc1cccnc1` [1-[4-(4,6-di-3-oxa-8-azabicyclo[3.2.1]oct-8-ylpyrimidin-2-yl)phenyl]-3-pyridin-3-ylurea]: the half-inhibitory concentration (IC50) at PI3K-alpha was determined as 1130 nM; in the experiment with LNCap, 0.8 nM; with MDA468, 5 nM; on PI3K-gamma, 4490 nM; at mTOR, 0.58 nM.

`CN(C)CCOc1ccc(NC(=O)Nc2ccc(-c3nc(NC4CCOCC4)cc(N4C5CCC4COC5)n3)cc2)cc1` [1-{4-[2-(dimethylamino)ethoxy]phenyl}-3-{4-[4-(3-oxa-8-azabicyclo[3.2.1]oct-8-yl)-6-(tetrahydro-2H-pyran-4-ylamino)pyrimidin-2-yl]phenyl}urea]: the IC50 was 1110 nM on PI3K-alpha; 30 nM with LNCap; 48 nM in the experiment with MDA468; 4540 nM on PI3K-gamma; 7.6 nM against mTOR.

Consider `CN1CCN(c2ccc(NC(=O)Nc3ccc(-c4nc(C5CCOCC5)cc(N5C6CCC5COC6)n4)cc3)cn2)CC1` [1-[6-(4-methylpiperazin-1-yl)pyridin-3-yl]-3-{4-[4-(3-oxa-8-azabicyclo[3.2.1]oct-8-yl)-6-(tetrahydro-2H-pyran-4-yl)pyrimidin-2-yl]phenyl}urea], for which the IC50 at PI3K-alpha is 2590 nM; with LNCap, not above 0.8 nM; with MDA468 it was 4 nM; at PI3K-gamma, not below 10000 nM; at mTOR, 1.22 nM.

`O=C(Nc1ccc(-c2nc(N3C4CCC3COC4)c(Cl)c(N3C4CCC3COC4)n2)cc1)Nc1cccnc1` [1-[4-(5-chloro-4,6-di-3-oxa-8-azabicyclo[3.2.1]oct-8-ylpyrimidin-2-yl)phenyl]-3-pyridin-3-ylurea]: the half-maximal inhibitory concentration (IC50) on PI3K-alpha is 922 nM; with LNCap it was 48 nM; in the experiment on MDA468 it was 220 nM; on PI3K-gamma, 932 nM; against mTOR, 0.655 nM.

With `CC(C)Nc1cc(N2C3COCC2COC3)nc(-c2ccc(NC(=O)Nc3ccc(N4CCN(C)CC4)cc3)cc2)n1` [1-{4-[4-(3,7-dioxa-9-azabicyclo[3.3.1]non-9-yl)-6-(isopropylamino)pyrimidin-2-yl]phenyl}-3-[4-(4-methylpiperazin-1-yl)phenyl]urea], the IC50 amounted to 1510 nM at PI3K-alpha; 280 nM in the experiment with LNCap; 320 nM with MDA468; 7890 nM at PI3K-gamma; 14.5 nM on mTOR.

What is called IC50 is the concentration needed to halve the response being measured.
